In PMC9820082, “Synthesis of 9-Hydroxy-1H-Benzo[f]chromene Derivatives with Effective Cytotoxic Activity on MCF7/ADR, P-Glycoprotein Inhibitors, Cell Cycle Arrest and Apoptosis Effects” (International Journal of Molecular Sciences, 2022):

Key:
Format in all cases: cell-based
[1] = target: T1, P-gp activity (efflux function) (Homo sapiens, UniProt P08183); assay: Rhodamine 123 accumulation assay in MCF-7/ADR cells; conditions: 4 h with compound then 5.25 μM Rho123 for 30 min
T1 construct: measuring intracellular accumulation of Rhodamine 123 in MCF-7/ADR cells; endogenous in cells; host or cells: MCF-7/ADR (Adriamycin-resistant human breast cancer cells)
Experimental: Furthermore, the reversion of P-gp-mediated multidrug resistance could be achieved by the down-regulation of P-gp expression and/or P-gp efflux function inhibition.
Briefly, resistant cancer cells were harvested, washed twice and counted. […] of each well was measured using a Spectramax Gemini fluorescence microplate reader (Molecular Devices, Sunnyvale, CA, USA). The total content of Rhodamine in each sample was determined by comparison with a Rhodamine standard curve.

P-glycoprotein (P-gp) = assay: P-gp content in MCF-7/ADR cell lysate (human P-gp ELISA kit); conditions: for inhibition at 48 h, 12.5 µM / inhibition at 48 h, 25 µM / inhibition at 48 h, 50 µM / inhibition at 48 h, 100 µM / IC50 at 48 h: human, MCF-7/ADR cells (cell lysate), MCF-7/ADR cell lysate, ELISA; for inhibition at 48 h, 12.5 µM: Conc. 12.5 (µM); for inhibition at 48 h, 25 µM: Conc. 25 (µM); for inhibition at 48 h, 50 µM: Conc. 50 (µM); for inhibition at 48 h, 100 µM: Conc. 100 (µM); for inhibitory effect on the P-gp level: MCF-7/ADR, in words
Experimental: P-glycoprotein (P-gp)-mediated multidrug resistance (MDR) is a phenomenon in which cells become resistant to structurally and mechanistically unrelated drugs, resulting in low intracellular drug concentrations. It is one of the noteworthy problems in malignant tumor clinical therapeutics.
The content of P-gp in the MCF-7/ADR cell lysates after incubation with varying conc. (12.5–100 µM) of tested compounds 4a, 4c, 4d, 4e, 4g and 4i following exposure for 48 hr was determined using a commercial human P-gp (Permeability Glycoprotein) ELISA Kit (MBS2506188, MyBioSource Inc., San Diego, CA, USA). Absorption was recorded at 450 nm with a Spectramax Gemini fluorescence microplate reader (Molecular Devices, Sunnyvale, CA, USA).

[2] = tested on: Adriamycin (ADR)-resistant human breast cancer cells (MCF-7/ADR); assay: Cytotoxicity against MCF-7/ADR cells; conditions: 24 h exposure, mean ± standard error
Experimental: Three human cancer cell lines, PC-3 (human prostate adenocarcinoma, metastatic), […], were used to test the anti-proliferative activity of β-enaminonitrile (4a–p) using the MTT colorimetric assay at concentrations ranging from 0–100 μM. The representative active cytotoxic substances 4a, 4c, 4d, 4e, 4g, 4i, 4k and 4o were also tested against two normal cell lines, human fetal lung (HFL-1) and human diploid fibroblasts (WI-38), as well as Adriamycin (ADR)-resistant human breast cancer cells (MCF-7/ADR). The reference cytotoxic agents, Vinblastine and Doxorubicin, were used in the tests.
The tumor cell lines MCF-7, HepG-2, PC-3 MCF-7/ADR, HFL-1 and (WI-38) were obtained from the American Type Culture Collection (ATCC, Rockville, MD, USA). The cells were grown on RPMI-1640 medium supplemented with 10% inactivated fetal calf serum and 50 µg/mL gentamycin. The cells were maintained at 37 ^οC in a humidified atmosphere with 5% CO2 and were subcultured two to three times a week.
The cytotoxic activity was appraised using the 3-(4,5-dimethylthiazol-2-yl)-2,5-diphenyltetrazolium bromide (MTT) colorimetric assay for the antitumor cell lines, as reported previously, and the ELISA assay for MCF-7/ADR [69].

[3] = Homo sapiens, NCI/ADR-RES, 24 h

T1 sequence (P08183 whole entry): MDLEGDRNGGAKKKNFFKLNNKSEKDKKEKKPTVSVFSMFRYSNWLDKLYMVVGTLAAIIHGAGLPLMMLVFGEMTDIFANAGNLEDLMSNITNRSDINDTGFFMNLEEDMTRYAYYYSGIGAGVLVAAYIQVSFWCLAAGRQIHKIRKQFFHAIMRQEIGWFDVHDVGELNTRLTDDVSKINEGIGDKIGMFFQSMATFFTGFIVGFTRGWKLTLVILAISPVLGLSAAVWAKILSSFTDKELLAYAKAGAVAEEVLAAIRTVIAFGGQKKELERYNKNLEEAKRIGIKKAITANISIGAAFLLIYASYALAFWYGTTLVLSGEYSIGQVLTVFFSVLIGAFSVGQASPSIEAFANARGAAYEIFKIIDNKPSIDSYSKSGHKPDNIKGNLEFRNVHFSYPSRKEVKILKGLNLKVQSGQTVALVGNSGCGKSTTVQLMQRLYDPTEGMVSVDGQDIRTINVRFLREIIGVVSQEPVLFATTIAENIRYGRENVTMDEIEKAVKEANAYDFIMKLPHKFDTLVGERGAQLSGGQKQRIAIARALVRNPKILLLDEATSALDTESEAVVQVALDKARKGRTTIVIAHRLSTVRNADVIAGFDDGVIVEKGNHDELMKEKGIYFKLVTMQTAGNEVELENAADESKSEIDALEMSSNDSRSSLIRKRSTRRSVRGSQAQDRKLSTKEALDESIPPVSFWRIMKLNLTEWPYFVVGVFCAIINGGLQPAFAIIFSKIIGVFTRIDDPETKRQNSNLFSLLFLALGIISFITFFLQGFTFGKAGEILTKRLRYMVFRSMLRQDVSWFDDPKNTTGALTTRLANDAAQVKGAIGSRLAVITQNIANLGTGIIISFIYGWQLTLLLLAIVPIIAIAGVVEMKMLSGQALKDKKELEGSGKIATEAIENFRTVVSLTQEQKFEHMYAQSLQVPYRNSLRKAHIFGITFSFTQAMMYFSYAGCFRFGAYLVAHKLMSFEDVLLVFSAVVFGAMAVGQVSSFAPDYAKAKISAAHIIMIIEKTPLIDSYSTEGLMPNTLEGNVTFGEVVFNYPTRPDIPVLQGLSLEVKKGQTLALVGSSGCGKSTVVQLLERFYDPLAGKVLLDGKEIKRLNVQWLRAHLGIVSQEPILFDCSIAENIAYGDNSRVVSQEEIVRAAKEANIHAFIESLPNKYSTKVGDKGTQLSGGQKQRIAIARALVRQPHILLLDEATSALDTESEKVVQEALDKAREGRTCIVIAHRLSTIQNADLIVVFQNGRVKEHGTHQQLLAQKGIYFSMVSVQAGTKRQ

SMILES	IC50 [1]	inhibition at 48 h, 12.5 µM (P-glycoprotein (P-gp))	inhibition at 48 h, 25 µM (P-glycoprotein (P-gp))	inhibition at 48 h, 50 µM (P-glycoprotein (P-gp))	inhibition at 48 h, 100 µM (P-glycoprotein (P-gp))	IC50 at 48 h (P-glycoprotein (P-gp))	IC50 [2, 3]	inhibitory effect on the P-gp level (P-glycoprotein (P-gp))	IC50 [2]
N#CC1=C(N)Oc2ccc3ccc(O)cc3c2C1c1ccc(Cl)c(Cl)c1 (stereo not drawn) [4g, 3-Amino-1-(3,4-Dichlorophenyl)-9-Hydroxy-1H-Benzo[f]chromene-2-Carbonitrile]	36.7 µM	23%	34%	66%	83%	34.6 µM	11.5 ± 0.4 µM		
N#CC1=C(N)Oc2ccc3ccc(O)cc3c2C1c1cc(Br)cc(Br)c1 (stereo not drawn) [4i, 3-Amino-1-(3,5-Dibromophenyl)-9-Hydroxy-1H-Benzo[f]chromene-2-Carbonitrile]	55.3 µM	15%	30%	48%	76%	53.6 µM	8.6 ± 0.7 µM	almost negligible inhibitory effect	
N#CC1=C(N)Oc2ccc3ccc(O)cc3c2C1c1ccc(Cl)cc1Cl (stereo not drawn) [4d, 3-Amino-1-(2,4-Dichlorophenyl)-9-Hydroxy-1H-Benzo[f]chromene-2-Carbonitrile]	46.6 µM	10%	25%	43%	69%	65.9 µM	10.4 ± 0.3 µM	almost negligible inhibitory effect	

These reach a lower IC50 [1]. Values come first.

IC50 [1]	inhibition at 48 h, 12.5 µM (P-glycoprotein (P-gp))	inhibition at 48 h, 25 µM (P-glycoprotein (P-gp))	inhibition at 48 h, 50 µM (P-glycoprotein (P-gp))	inhibition at 48 h, 100 µM (P-glycoprotein (P-gp))	IC50 at 48 h (P-glycoprotein (P-gp))	SMILES	IC50 [2, 3]	inhibitory effect on the P-gp level (P-glycoprotein (P-gp))	IC50 [2]
28.7 µM	26%	37%	71%	88%	30.8 µM	N#CC1=C(N)Oc2ccc3ccc(O)cc3c2C1c1cccc(Cl)c1Cl (stereo not drawn) [4c, 3-Amino-1-(2,3-Dichlorophenyl)-9-Hydroxy-1H-Benzo[f]chromene-2-Carbonitrile]	8.6 to 11.5 µM	strong inhibitory effect	12.4 ± 0.1 µM
23.3 µM	25%	37%	68%	80%	32 µM	N#CC1=C(N)Oc2ccc3ccc(O)cc3c2C1c1ccc(F)cc1F (stereo not drawn) [4a, 3-Amino-1-(2,4-Difluorophenyl)-9-Hydroxy-1H-Benzo[f]chromene-2-Carbonitrile]	10.8 ± 0.4 µM	strong inhibitory effect	
14.6 µM	36%	54%	80%	91%	18.7 µM	N#CC1=C(N)Oc2ccc3ccc(O)cc3c2C1c1cc(Cl)ccc1Cl (stereo not drawn) [4e, 3-Amino-1-(2,5-Dichlorophenyl)-9-Hydroxy-1H-Benzo[f]chromene-2-Carbonitrile]	10 ± 0.3 µM	strong inhibitory effect	
